Columns and labels:
[1] = target: RAC-beta serine/threonine-protein kinase (Homo sapiens) (UniProt P31751); assay: Selectivity interaction (KinomeScan (DiscoverX)) EUB0001079a AKT2; conditions: at 1 µM
[2] = target: Serine/threonine-protein kinase Chk2 (Homo sapiens) (UniProt O96017); assay: Selectivity interaction (Kinase panel (KiNativ target engagement assay in Jurkat cells)) EUB0001635a CHEK2; format: cell-based; conditions: at 1 µM
[3] = target: T1, Dual specificity mitogen-activated protein kinase kinase 3 (Homo sapiens) (UniProt P46734); assay: Selectivity interaction (ActivX KiNativ screen (kinase selectivity in THP-1 cell lysates)) EUB0000639a MAP2K3; format: subcellular; conditions: lysate, at 0.04 µM
T1 sequence (whole entry): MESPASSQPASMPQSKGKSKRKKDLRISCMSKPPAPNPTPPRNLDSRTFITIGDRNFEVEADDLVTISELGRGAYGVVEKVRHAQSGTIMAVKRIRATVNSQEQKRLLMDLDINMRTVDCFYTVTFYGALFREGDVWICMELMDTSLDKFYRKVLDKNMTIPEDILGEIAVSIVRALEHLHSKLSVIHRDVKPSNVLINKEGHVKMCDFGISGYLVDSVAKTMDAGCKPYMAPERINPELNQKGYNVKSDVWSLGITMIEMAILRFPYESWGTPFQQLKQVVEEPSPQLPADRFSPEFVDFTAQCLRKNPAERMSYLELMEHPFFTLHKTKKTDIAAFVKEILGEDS

[4] = target: Proto-oncogene tyrosine-protein kinase Src (Homo sapiens, UniProt P12931); assay: Selectivity interaction (ActivX KiNativ screen (kinase selectivity in THP-1 cell lysates)) EUB0000639a SRC; format: subcellular; conditions: lysate
[5] = target: Serine/threonine-protein kinase 10 (Homo sapiens) (UniProt O94804); assay: Selectivity interaction (ActivX KiNativ screen (kinase selectivity in THP-1 cell lysates)) EUB0000639a STK10; format: subcellular; conditions: lysate, at 1 µM
[6] = target: Fibroblast growth factor receptor 4 (Homo sapiens, UniProt P22455); conditions: at 10 µM
[7] = target: T2, cGMP-dependent protein kinase 1 (Homo sapiens) (UniProt Q13976); assay: Selectivity interaction (KinomeScan (DiscoverX)) EUB0000618a PRKG1; conditions: at 10 µM
T2 sequence (whole entry): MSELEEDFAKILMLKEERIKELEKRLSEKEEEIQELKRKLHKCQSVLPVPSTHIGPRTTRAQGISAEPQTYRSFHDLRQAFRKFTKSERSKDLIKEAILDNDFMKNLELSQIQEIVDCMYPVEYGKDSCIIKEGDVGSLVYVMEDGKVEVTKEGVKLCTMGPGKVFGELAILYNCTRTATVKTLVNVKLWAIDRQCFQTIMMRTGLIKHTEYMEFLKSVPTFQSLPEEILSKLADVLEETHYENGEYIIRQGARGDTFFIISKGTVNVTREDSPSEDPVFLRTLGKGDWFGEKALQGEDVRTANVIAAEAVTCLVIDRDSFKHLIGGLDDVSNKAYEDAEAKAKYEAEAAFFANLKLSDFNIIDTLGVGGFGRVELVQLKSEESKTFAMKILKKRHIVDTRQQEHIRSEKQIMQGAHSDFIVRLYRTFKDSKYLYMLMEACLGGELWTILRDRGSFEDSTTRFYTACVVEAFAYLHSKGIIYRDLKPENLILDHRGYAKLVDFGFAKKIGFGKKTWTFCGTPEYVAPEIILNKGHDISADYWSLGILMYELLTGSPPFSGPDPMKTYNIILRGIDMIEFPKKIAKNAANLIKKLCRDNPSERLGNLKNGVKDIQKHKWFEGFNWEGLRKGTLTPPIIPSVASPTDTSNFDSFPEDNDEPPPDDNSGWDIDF

[8] = target: Serine/threonine-protein kinase PAK 3 (Homo sapiens) (UniProt O75914); conditions: at 10 µM
[9] = target: Protein kinase C eta type (Homo sapiens) (UniProt P24723); assay: Selectivity interaction (Upstate Kinase Profiler service (Millipore)) EUB0000056c PRKCH; conditions: at 1 µM
[10] = target: NT-3 growth factor receptor (Homo sapiens, UniProt Q16288); assay: Selectivity interaction (KinomeScan (DiscoverX)) EUB0000607a NTRK3; conditions: at 10 µM
[11] = target: Platelet-derived growth factor receptor beta (Homo sapiens, UniProt P09619); assay: Selectivity interaction (KinomeScan (DiscoverX)) EUB0000607a PDGFRB; conditions: at 10 µM
[12] = target: T3, Serine/threonine-protein kinase 4 (Homo sapiens) (UniProt Q13043); assay: Selectivity interaction (SelectScreen profiling (Invitrogen)) EUB0000607a STK4; conditions: at 2 µM
T3 sequence (whole entry): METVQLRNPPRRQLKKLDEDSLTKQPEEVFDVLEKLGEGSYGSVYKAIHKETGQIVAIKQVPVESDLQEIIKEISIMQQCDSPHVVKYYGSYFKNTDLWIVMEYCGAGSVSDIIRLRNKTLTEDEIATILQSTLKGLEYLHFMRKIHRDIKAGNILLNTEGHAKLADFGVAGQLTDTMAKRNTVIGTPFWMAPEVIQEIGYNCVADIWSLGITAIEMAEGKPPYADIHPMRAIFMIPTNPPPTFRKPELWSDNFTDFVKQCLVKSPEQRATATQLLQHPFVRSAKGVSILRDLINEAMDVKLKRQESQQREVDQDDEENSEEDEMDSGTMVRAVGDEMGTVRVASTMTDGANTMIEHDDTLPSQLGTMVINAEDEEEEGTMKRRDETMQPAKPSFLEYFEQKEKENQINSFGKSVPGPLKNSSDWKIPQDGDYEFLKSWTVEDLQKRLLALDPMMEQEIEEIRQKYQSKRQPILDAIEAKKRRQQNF

[13] = target: Non-receptor tyrosine-protein kinase TYK2 (Homo sapiens, UniProt P29597); assay: Selectivity interaction (Kinase panel (Carna Biosciences)) EUB0001542aTs TYK2; conditions: at 1 µM
Sequence of Non-receptor tyrosine-protein kinase TYK2 (P29597 whole entry): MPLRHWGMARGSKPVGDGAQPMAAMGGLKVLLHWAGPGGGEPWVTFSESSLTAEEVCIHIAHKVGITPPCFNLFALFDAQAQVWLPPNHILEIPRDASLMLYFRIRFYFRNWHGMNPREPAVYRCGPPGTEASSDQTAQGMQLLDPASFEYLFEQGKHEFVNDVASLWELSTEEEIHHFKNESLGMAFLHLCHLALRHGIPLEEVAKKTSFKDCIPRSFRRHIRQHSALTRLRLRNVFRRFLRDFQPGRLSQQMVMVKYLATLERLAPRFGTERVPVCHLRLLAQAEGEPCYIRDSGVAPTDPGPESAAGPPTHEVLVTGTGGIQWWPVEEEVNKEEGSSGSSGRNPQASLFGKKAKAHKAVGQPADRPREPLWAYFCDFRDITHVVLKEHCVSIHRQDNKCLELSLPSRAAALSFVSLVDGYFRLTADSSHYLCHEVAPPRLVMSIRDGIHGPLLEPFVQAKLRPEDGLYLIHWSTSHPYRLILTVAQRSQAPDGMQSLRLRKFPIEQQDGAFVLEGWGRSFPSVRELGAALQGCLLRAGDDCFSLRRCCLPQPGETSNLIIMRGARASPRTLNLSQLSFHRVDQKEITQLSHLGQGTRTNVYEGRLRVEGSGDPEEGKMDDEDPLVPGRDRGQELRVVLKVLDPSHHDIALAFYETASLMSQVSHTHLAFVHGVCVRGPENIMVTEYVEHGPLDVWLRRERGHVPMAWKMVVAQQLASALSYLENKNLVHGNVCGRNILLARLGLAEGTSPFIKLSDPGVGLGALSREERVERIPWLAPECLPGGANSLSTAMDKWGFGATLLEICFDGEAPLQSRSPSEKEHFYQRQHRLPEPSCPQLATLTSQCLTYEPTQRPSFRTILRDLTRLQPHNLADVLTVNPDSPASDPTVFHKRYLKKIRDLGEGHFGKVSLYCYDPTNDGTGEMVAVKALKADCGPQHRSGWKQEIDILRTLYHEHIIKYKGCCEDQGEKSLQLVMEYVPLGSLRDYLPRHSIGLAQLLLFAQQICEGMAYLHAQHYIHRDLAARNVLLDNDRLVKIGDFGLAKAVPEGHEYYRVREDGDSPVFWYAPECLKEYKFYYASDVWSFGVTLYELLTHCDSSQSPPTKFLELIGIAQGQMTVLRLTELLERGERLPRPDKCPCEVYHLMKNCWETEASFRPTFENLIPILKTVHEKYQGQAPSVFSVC

Sequence of Proto-oncogene tyrosine-protein kinase Src (P12931 2-536 limits assumed): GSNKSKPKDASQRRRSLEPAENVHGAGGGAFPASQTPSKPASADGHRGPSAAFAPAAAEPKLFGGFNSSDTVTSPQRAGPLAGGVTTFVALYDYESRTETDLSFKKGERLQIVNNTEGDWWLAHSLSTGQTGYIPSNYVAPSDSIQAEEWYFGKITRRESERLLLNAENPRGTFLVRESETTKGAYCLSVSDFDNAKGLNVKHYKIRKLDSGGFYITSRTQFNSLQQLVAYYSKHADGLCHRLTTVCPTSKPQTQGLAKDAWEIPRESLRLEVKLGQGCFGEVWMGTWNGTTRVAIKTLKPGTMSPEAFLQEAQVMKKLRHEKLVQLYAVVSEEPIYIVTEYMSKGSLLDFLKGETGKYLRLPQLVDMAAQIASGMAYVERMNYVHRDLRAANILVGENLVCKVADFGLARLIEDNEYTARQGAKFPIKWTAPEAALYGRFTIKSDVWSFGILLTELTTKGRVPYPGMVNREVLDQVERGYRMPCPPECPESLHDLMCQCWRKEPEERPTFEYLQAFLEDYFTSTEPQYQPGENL
Sequence of Serine/threonine-protein kinase Chk2 (Homo sapiens) (O96017 whole entry): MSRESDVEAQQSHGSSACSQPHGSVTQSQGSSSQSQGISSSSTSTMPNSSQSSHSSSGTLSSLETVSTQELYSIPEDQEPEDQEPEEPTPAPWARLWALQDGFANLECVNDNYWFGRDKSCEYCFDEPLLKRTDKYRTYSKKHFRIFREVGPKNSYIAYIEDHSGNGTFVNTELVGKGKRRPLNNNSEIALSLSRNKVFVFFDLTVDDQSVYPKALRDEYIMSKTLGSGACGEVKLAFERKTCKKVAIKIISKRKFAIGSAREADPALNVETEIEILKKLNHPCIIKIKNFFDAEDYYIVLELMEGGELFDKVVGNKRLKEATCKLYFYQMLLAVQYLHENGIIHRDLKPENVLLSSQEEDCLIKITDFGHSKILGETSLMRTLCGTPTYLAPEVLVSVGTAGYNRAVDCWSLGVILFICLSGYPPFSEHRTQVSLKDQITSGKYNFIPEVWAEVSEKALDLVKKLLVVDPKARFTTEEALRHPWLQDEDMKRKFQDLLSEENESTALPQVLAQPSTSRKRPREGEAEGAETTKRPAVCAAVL
Sequence of Protein kinase C eta type (Homo sapiens) (P24723 whole entry): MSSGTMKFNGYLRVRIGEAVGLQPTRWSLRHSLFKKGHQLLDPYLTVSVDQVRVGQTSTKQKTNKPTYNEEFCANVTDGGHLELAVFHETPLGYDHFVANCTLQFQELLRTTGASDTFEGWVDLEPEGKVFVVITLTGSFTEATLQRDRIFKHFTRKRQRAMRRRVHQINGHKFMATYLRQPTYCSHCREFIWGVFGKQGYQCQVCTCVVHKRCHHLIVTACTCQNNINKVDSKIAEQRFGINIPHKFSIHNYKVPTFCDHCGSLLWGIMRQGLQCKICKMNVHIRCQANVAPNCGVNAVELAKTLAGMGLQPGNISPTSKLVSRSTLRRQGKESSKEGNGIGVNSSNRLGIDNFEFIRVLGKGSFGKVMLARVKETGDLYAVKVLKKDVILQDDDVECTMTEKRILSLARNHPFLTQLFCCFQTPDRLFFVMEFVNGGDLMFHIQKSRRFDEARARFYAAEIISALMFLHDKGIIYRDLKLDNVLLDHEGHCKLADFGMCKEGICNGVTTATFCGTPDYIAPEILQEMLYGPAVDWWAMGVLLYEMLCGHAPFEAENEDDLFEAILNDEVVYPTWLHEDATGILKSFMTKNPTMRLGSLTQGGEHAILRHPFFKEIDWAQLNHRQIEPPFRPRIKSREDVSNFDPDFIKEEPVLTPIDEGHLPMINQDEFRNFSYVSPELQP
Sequence of Serine/threonine-protein kinase 10 (Homo sapiens) (O94804 whole entry, looked up): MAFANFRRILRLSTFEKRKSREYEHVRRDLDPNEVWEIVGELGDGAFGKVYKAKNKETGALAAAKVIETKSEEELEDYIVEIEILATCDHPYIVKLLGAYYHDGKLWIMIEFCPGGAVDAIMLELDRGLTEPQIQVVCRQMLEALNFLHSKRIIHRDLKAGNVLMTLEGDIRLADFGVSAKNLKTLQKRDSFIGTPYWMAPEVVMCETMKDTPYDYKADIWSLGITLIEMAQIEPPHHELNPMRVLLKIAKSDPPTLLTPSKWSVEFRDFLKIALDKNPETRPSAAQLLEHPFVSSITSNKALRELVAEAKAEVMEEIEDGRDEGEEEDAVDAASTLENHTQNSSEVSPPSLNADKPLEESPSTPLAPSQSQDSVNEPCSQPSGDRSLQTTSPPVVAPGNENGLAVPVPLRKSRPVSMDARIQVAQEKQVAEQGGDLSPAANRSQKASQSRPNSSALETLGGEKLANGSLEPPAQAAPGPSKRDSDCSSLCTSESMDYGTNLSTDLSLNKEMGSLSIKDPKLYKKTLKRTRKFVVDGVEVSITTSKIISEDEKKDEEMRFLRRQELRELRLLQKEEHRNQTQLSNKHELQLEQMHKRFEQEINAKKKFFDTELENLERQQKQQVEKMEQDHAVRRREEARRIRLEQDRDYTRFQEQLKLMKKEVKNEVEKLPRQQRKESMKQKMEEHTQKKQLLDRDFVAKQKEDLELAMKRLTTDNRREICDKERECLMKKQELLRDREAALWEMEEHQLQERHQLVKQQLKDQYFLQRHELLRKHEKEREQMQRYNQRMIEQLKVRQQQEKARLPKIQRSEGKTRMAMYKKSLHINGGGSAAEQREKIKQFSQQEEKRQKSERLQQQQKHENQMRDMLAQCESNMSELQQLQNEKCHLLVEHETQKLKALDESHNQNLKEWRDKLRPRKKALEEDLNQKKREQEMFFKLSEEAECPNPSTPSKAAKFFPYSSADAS
Sequence of NT-3 growth factor receptor (Q16288 32-839 limits assumed): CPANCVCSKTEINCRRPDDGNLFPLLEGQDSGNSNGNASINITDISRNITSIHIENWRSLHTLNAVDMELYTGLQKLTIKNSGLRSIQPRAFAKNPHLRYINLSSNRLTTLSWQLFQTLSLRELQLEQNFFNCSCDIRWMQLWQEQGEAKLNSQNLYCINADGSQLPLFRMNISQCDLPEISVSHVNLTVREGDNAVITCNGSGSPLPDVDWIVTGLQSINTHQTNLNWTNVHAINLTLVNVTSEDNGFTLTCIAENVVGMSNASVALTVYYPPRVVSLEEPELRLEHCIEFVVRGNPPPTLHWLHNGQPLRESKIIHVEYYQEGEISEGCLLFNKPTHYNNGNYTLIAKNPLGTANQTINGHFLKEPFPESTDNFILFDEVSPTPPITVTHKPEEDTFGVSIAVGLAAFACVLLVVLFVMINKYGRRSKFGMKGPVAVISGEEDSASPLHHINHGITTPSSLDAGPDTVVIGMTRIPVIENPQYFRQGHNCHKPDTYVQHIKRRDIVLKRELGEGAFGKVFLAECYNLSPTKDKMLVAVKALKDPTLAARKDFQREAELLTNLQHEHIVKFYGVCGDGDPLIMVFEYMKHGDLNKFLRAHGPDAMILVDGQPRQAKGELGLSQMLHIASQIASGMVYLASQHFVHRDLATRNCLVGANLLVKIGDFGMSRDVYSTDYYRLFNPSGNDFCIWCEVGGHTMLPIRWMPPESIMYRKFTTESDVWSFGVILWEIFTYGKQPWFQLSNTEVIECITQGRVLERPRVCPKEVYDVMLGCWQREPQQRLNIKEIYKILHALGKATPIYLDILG

Nc1cnc(N2CCc3cc(S(=O)(=O)Nc4c(F)cc(Cl)cc4F)cc(N4CCCC4=O)c32)nc1 [TP-020n]
% of control [1]: 100%

C=CC(=O)Nc1ccc(C(=O)Nc2[nH]nc3c2CN(C(=O)N[C@H](CN(C)C)c2ccccc2)C3(C)C)cc1
% of engagement ([2]; Selectivity number of off-targets 0.0, Selectivity number of targets 233.0, Source Knowledge https://www.sciencedirect.com/science/article/pii/S2451945619300674?via%3Dihub): 5.2% | % of engagement [2]: 4.4%

CC[C@@H]1[C@H](F)C(=O)N[C@@H]1COc1nccc2cc(C(N)=O)c(OC)cc12 [ZIMLOVISERTIB]
% of inhibition [3]: -19% | % of inhibition ([4]; at 0.01 µM): -8.5% | % of inhibition ([4]; at 0.04 µM): -0.2% | % of inhibition ([4]; at 0.2 µM): 0.7% | % of inhibition ([4]; at 1 µM): -11% | % of inhibition ([4]; at 5 µM): -13.3% | % of inhibition [5]: -15.7%

COCC(=O)NC/C=C/c1ccc2ncnc(Nc3ccc(Oc4ccc(C)nc4)c(C)c3)c2c1 [CP-724714]
% of control [6]: 100%

O[C@H]1CC[C@H](Nc2ncc3nc(Nc4c(F)cc(F)cc4F)n([C@H]4CCOC4)c3n2)CC1
% of control [7]: 100%

Cc1cc([C@@H](C)Nc2ccccc2C(=O)O)c2nc(N3CCOCC3)cc(=O)n2c1 [AZD-6482]
% of control [8]: 98%

Cc1ccc(-c2ccc3c(ccc4sc5c(c43)NC[C@@H](C)NC5=O)n2)cn1
% of inhibition [9]: 6%

CNC(=O)Nc1ccc(-c2nc(N3CC4CCC(C3)O4)c3cnn(C4CCC5(CC4)OCCO5)c3n2)cc1
% of control [10]: 93% | % of control [11]: 89% | % of inhibition [12]: 12%

Cn1cc(Nc2nccc(N3CC4CCC(C3)N4C(=O)[C@@H]3CC3(F)F)n2)cn1
% of inhibition [13]: 101%

— ChEMBL document CHEMBL5465560, “Selectivity Literature for EUbOPEN Chemogenomic Library” (2024)
